# Results reported in paper PMC11141866, “Pyrimidine depletion enhances targeted and immune therapy combinations in acute myeloid leukemia” (JCI Insight, 2024).
# pIC50: −log10 of the molar value. Where “and” joins values, the source holds several entries; their conditions need not be identical. Equal values may be shown once.
# What was measured:
# CYP 2D6 = CYP 2D6 (Homo sapiens, UniProt P10635); assay: CYP inhibition 2D6; format: in vitro ADME
# From the text: (§1) Supplement jciinsight-9-173646-s083.xlsx, sheet "Supplemental Table S.2." | column: HOSU-53
# [1] = tested on: MOLM-13 disseminated CDX AML model; assay: MOLM-13 CDX synergy with azacitidine / venetoclax; format: in vivo, NCG mice; conditions: HOSU-53 4 mg/kg po qd; event 1 = death, 0 = censored; 4 mg/kg
# Method: Female 8- to 12-week-old NCG mice were engrafted with 1 × 10^5 cells via tail vein i.v. injection. Four days postengraftment (day 1 of treatment), mice (n = 10/arm) were randomized to receive p.o. qd vehicle (40% HPβCD, n = 10; or 60% Phosal 50 PG, 30% PEG 400, and 10% ethanol, n = 10), 4 mg/kg HOSU-53, 25 mg/kg ven, or i.p. 1.5 mg/kg aza on a 5 days on/16 days off cycle, combinations of double regimens and triple regimens till moribundity or end of study, day 53.
# Supplemental Figure S.4. […] Using the FLT3 […]
# were enrolled to receive daily oral 4 mg/kg HOSU-53 to compare its monotherapy efficacy with daily oral 25 mg/kg venetoclax (ven) monotherapy or 1.5 mg/kg azacitidine (aza) HMA i.p. for five days every 16 days cycle monotherapy or the combination of aza/ven versus ven/ HOSU-53 versus aza/HOSU-53 versus the triple aza/ven/HOSU-53 regimen.
# MV4-11 AML target cells = assay: Murine BMDM phagocytosis of MV4-11 cells (ADCP); format: cell-based, human
# Method: Supplemental Figure S.9. A) Murine bone marrow derived macrophages (BMDM, effector cells) were generated from harvested bone marrow cells grown in the presence of 20ng/ml murine M-CSF for 7-8 days where media was refreshed on day 3. After BMDM generation, they were collected and stained […]
# with CFDA-SE (green). […]
# and stained with CTV (blue). Green BMDM cells were then co-cultured for 4 h with blue MV4-11 AML cells in the presence of 10 µg/ml isotype IgG1 or anti-CD47 antibody at 1:1 E:T ratio in an ultra-low binding tissue culture plate. Cells were then collected and analyzed using flow cytometry to quantify percentage of phagocytosed cells indicated by viable F4/80+CFDA+CTV+ cells (n=6). Adjusted FDR p-value *<0.05, ***≤0.0001, nonsignificant (ns) ≥0.05. B) Representative florescent microscopy images were taken using 20x objective to visualize antibody dependent cellular phagocytosis (ADCP). Prior to imaging, the wells were rinsed three time to remove MV4-11 target cells in suspension and allow the imaging of adherent effector cells (green BMDM) and residual blue MV4 -11 target cells. The outlined area in the red box is manually enlarged.
# (1 picture or pasted object on this page, not shown here)
# [2] = Mini-Ames Mutagenicity Test; conditions: CHO-WBL cells with and without S9 activation (so in the source)
# From the text: as §1
# [3] = tested on: MOLM-13 disseminated CDX AML model; assay: MOLM-13 CDX synergy with anti-CD47 immunotherapy; format: in vivo, NCG mice; conditions: event 1 = death, 0 = censored
# Method: Male 8- to 12-week-old NCG mice were engrafted with […] cells via tail vein i.v. injection. Four days after engraftment (day 1 of treatment), mice (n = 10/arm) were randomized to receive p.o. qd and i.p. vehicle, daily oral 4 mg/kg or 10 mg/kg HOSU-53, 0.5 mg/animal i.p. anti-CD47 B6H12 (BioXCell) daily for 21 days, or HOSU-53 combination with anti-CD47. At day 80, half of the surviving mice in the combination cohorts were euthanized for bone marrow collection, leaving the remaining mice in the group on study without receiving any treatment. […] Figure 8, A and B, share the same vehicle and anti-CD47 cohorts.
# [4] = MOLM-13 CDX multiple ascending dose study; format: in vivo; conditions: male, mouse, in vivo, po; daily p.o., MOLM-13 CDX NCG mice; read-out: maximum tolerated dose (MTD), daily dose
# From the text: (§2) Male 8- to 12-week-old NCG mice (NOD-Prkdc^em26Cd52Il2rg^em26Cd22/NjuCrl, Charles River) were engrafted with 1 × 10^5 cells via tail vein i.v. injection. Four days after engraftment (day 1 of treatment), mice (n = 10/arm) were randomized to receive p.o. qd vehicle (40% HPβCD) or ascending doses of oral HOSU-53.
# [5] = tested on: MOLM-13 disseminated CDX AML model; assay: MOLM-13 CDX multiple ascending dose study; format: in vivo
# From the text: as §2
# [6] = tested on: MOLM-13 disseminated CDX AML model; assay: MOLM-13 CDX efficacy study correlated with PK/PD (survival); format: in vivo
# Method: Male 8- to 12-week-old NCG mice were engrafted with 1 × 10^5 cells via tail vein i.v. injection. Four days after engraftment (day 1 of treatment), mice (n = 9–10/arm) were randomized to receive p.o. qd vehicle (40% HPβCD) or p.o. qd HOSU-53 at 4, 10, and 20 mg/kg or 30 mg/kg biwk till moribundity or end of study, day 73. An additional study was done for PK/PD correlation with the survival study where 9 mice per group were randomized to receive p.o. qd vehicle (40% HPβCD) or p.o. qd HOSU-53 at 4, 10, and 20 mg/kg or 30 mg/kg biwk till day 14. Mice were bled for plasma collection to analyze HOSU-53 and DHO concentrations 1 day after the first dose and on day 14 for cumulative plasma concentration analysis. Figure 3B and Figure 4, A and B, share the same vehicle group.
# In vivo p.o. PK in dog = conditions: po
# From the text: as §1
# Sequence of CYP 2D6 (P10635 whole entry): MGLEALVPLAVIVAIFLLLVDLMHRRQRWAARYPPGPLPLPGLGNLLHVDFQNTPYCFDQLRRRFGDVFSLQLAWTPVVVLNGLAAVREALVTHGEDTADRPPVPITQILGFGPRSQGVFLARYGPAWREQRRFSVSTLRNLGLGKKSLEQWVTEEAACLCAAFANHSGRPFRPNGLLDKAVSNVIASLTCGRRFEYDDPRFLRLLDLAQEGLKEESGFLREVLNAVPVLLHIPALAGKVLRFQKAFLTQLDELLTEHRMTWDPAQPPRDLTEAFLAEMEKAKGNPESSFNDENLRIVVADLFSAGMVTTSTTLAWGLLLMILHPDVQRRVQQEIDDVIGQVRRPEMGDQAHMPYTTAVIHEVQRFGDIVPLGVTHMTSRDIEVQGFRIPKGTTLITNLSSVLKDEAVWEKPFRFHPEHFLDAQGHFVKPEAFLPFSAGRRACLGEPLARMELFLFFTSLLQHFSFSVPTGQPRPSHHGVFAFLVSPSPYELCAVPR
smiles,measurement,setting,value
CCCCOc1cccc(-c2ccc(-c3cc(C(=O)O)c4cc(F)ccc4n3)cc2)c1 [HOSU-53],pIC50,CYP 2D6,4.52
same,"Days of treatment (survival, per animal)",[1],42 days and 40 days and 37 days and 41 days
same,CDFA+F4/80+CTV+,"MV4-11 AML target cells; 25nM HOSU53 + IgG1, six replicate columns, DMSO + IgG1 control 3.5-16.7",31.4 and 44.6 and 23.1 and 30.2 and 23.9 and 17.1
same,phagocytosis of AML cells by murine BMDM in presence of B6H12 antibody,"MV4-11 AML target cells; 72-hour HOSU-53 (10nM) pretreatment of MV4-11, 10 µg/ml anti-CD47",greatly enhanced phagocytosis
same,Mini-Ames Mutagenicity Test,[2],Negative
same,"Days of Study (survival, per animal)",[3]; 4 mg/kg HOSU-53,39 days and 46 days and 43 days and 42 days and 32 days and 40 days and 41 days
same,"Days of Study (survival, per animal)",[3]; 10 mg/kg HOSU-53,38 days and 50 days and 49 days and 51 days and 53 days and 52 days
same,MTD,[4],10 to 20 mg/kg
same,survival advantage vs vehicle,"[5]; 1 mg/kg daily p.o., P < 0.05",modest yet significant survival advantage
same,tolerability,[5]; 10 mg/kg daily p.o.,well tolerated
same,tolerability,"[5]; 30 mg/kg daily p.o., after 13 days of treatment",dose-limiting weight loss
same,tolerability,[5]; 100 mg/kg daily p.o.,toxic
same,"Survival, day at event (per animal)",[5]; 0.1 mpk qd p.o.,18 days and 17 days and 16 days
same,"Survival, day at event (per animal)",[5]; 1 mpk qd p.o.,22 days and 25 days and 21 days and 23 days
same,"Survival, day at event (per animal)",[5]; 10 mpk qd p.o.,63 days and 62 days and 48 days and 58 days and 61 days and 32 days and 57 days
same,"Survival, day at event (per animal)","[5]; 30 mpk qdx13, holiday, 20 mpk qd start day 18, flag 0 = censored",63 days and 15 days and 65 days and 14 days and 71 days and 67 days and ≥ 74 days
same,"Survival, day at event (per animal)",[5]; 100 mpk qdx6,10 days and 9 days
same,median survival,[6]; 10 mg/kg daily p.o.,55 days
same,tolerability,[6]; 20 mg/kg daily p.o.,intolerable in approximately half the mice
same,median survival,[6]; 30 mg/kg twice weekly p.o.,48 days
same,tolerability,[6]; 30 mg/kg twice weekly p.o.,well tolerated
same,"Survival, day of study at event (per animal)",[6]; 4 mpk poqd,44 days and 46 days and 43 days and 45 days and 36 days
same,"Survival, day of study at event (per animal)",[6]; 10mpk poqd,55 days and 52 days and 47 days and 60 days and 59 days and 49 days and 63 days and 58 days
same,"Survival, day of study at event (per animal)","[6]; 20mpk poqd, flag 0 = censored",≥ 73 days and 69 days and 46 days and 41 days and 40 days and 71 days and 11 days and 31 days
same,"Survival, day of study at event (per animal)",[6]; 30mpk biwk,50 days and 43 days and 42 days and 48 days and 46 days and 52 days and 44 days and 49 days
same,bioavailability,In vivo p.o. PK in dog; read-out: in vivo p.o. bioavailability (F),47%
same,half-life,In vivo p.o. PK in dog; read-out: in vivo p.o. t1/2 (converted),8.4 h
